The values that follow come from patent US12084521B2, “TLR9 inhibitors to suppress inflammatory response to pathogens” (University Of Maryland, Baltimore, priority 2018, dated 2024).

Test [1] deals with TLR2/1 signaling. Put plainly: Plasma cytokines after i.p. Pam3C in mice. In kind it is in vivo, C57BL/6J mice. The conditions noted are these: peptide 200 nmol/mouse i.p.; Pam3C 67 nmol/mouse. How it is done: Systemic cytokine levels were measured in plasma samples obtained 1, 3, and 5 hours after intraperitoneal (i.p.) administration of 7.86 nmol (50 μg) of ODN 1668 or 67 nmol of Pam3C per mouse, using ELISA kits from Biolegend™ Inc. CPDP were dissolved in PBS and administered i.p. at the dose of 200 nmol per mouse 1 hour before administration of a TLR agonist. For survival experiments, mice were sensitized to TLR9 agonists by i.p. injection of 20 mg of D-Gal 30 minutes before administration of peptides or PBS. ODN 1668 was used at the doses of 3.93 or 7.86 nmol/mouse (25 or 50 μg/mouse) 1.5 hours after D-Gal. Animal survival was monitored for 50 hours. All agents were administered i.p. in 500 μL volume of PBS. […]
To test the in vivo efficacy and specificity of 9R34-ΔN, C57BL/6J mice were mock-treated or treated i.p. with a single dose of inhibitory or control peptide (200 nmol/mouse) and challenged with TLR9 agonist ODN 1668 (7.86 nmol/mouse) or TLR2/1 agonist Pam3C (67 nmol/mouse) 1 hour later. Plasma concentrations of TNFα and IL-12-p40 were measured 1, 3, and 5 hours after the challenge. […]
Plasma TNFα and IL-12-p40 levels following intraperitioneal administration of ODN 1668 to C57Bl/6J mice in peptide-pretreated and control mice are shown in FIG. 14A and FIG. 14B. […] The statistical significance of changes in cytokine concentrations was determined by a two-way ANOVA test; *p<0.001.

For test [2], the target named is T1, TIRAP TIR (Homo sapiens, UniProt P58753).
T1 construct: fused with TLR9 TIR or TIRAP TIR; expressed in transfected cells; host or cells: HeLa
The experiment in a line: FLIM/FRET binding of Cy3-labeled peptides to Cer-fused TIR in HeLa cells. The conditions noted are these: HeLa cells, Cy3-peptide 2.5-40 μM, 1 hour. How it is done: Three million HeLa cells were transfected with 10 μg of MyD88-Cer, TIRAP-Cer, TRAM-Cer, TLR2-Cer, TLR4 TIR-Cer, or TLR9 TIR-Cer expression vectors using a Lipofectamine™ 3000 kit from Invitrogen™ per manufacturer recommendations. Twenty four hours later, the transfected cells were trypsinized and reseeded into a 50-well gasket (Grace Bio-Labs™) mounted on a microscope slide at the density 8000 cells/well. The next day, cells were treated with Cy3-9R34-ΔN or Cy3-9R11 for 1 hour and fixed on the slides with a 4% paraformaldehyde solution.
Fluorescence lifetime images were acquired using the Alba V FLIM™ system (ISS™ Inc.). The excitation was from the laser diode 443 nm coupled with scanning module (ISS™) through multiband dichroic filter 443/532/635 nm (Semrock™) to Olympus™ IX71S microscope with objective 20×0.45 NA (UPlan™ Olympus™). Emission was observed through bandpass filter […] (Chroma Technology™) and detected by a photomultiplier H7422-40 (Hamamatsu™). Measurements were performed using frequency domain (FD) and time domain (TD) modalities of the FLIM system. FD FLIM data were acquired using ISS™ A320 FastFLIM™ electronics with n harmonics of 20 MHz laser repetition frequency (n=1, 2, 3, 4, 5, 6). FastFLIM™ was calibrated using fluorescein in buffer pH 8.0 as a standard with a single lifetime of 4.0 ns. TD FLIM images were acquired using time-correlated single photon counting TCSPC™ Model SPC-830 (Becker & Hick™).
Images (256×256 pixels) were acquired with resolution varied in the range ˜0.4-0.7 μm/pixel, using scan speed 1 ms/pixel. To avoid pixel intensity saturation in bright cells and to improve the signal from dim cells, two to five overlapping scans were used for acquisition of FLIM images. Image sizes varied from 100×100 to 180×180 μm to accommodate multiple cells. FLIM data were analyzed with VistaVision™ Suite software (Vista™ v.212 from ISST). Fluorescence lifetime was determined using single- and bi-exponential intensity decay models. Average lifetime images were generated based on pixel-by-pixel analysis using the combined signal of two neighboring pixels in all directions (bin 2=25 pixels). The binning was used to improve the signal for analysis. The average lifetimes were calculated from fitted parameters, decay times τi and amplitudes αi, τa=Σαiτi. The bi-exponential fitting procedure was performed with one lifetime component fixed at 3.1 nsec, which was found common for most images. To calculate the effective FRET efficiency (E), average lifetimes of the donor only images (τD) and donor-acceptor images (τDA) were used, E=1−τDA/τD.
To identify potential binding partners of inhibitory peptides a FRET approach coupled with Fluorescence Lifetime Imaging Microscopy (FLIM) was used. HeLa cells were transiently transfected with an expression vector that encodes a TIR domain fused with Cerulean fluorescent protein (Cer). Cells were treated with various concentrations of a Cy3-labeled inhibitory peptide 48 hours after transfection. Cy3 is a suitable FRET acceptor for Cer fluorescence. A direct molecular interaction of a Cy3-labeled peptide with Cer-fused TIR domain should quench Cer fluorescence, leading to a decreased fluorescence lifetime.
TLR9, MyD88, and TIRAP were selected as potential primary binding partners for Cy3-9R34-ΔN and Cy3-9R11. Cer-fused TLR2 and TLR4 TIR domains, and Cer not fused to a TIR, were used as controls. […] Therefore, the TIRAP-Cer with Cy3-2R9 was used as a positive binding control. Binding of Cy3-labeled CPDPs to Cerulean- (Cer-) labeled TIR domains was tested as follows. Fluorescence Lifetime IMages (FLIM) were made of HeLa cells expressing Cer not fused with a TIR domain (upper row) or fused with TLR9 TIR or TIRAP TIR (middle and bottom rows) and treated with a Cy3-labeled decoy peptide for 1 hour.
A progressive shift of average fluorescence lifetime towards lower values observed with increasing peptide concentrations indicates the binding between donor and acceptor moieties. […]

Test [3] has as its system TLR9 signaling. The experiment in a line: Plasma cytokines after i.p. ODN 1668 in mice. In kind it is in vivo, C57BL/6J mice. The note with it: peptide 200 nmol/mouse i.p.; ODN 1668 7.86 nmol/mouse. How it is done: Systemic cytokine levels were measured in plasma samples obtained 1, 3, and 5 hours after intraperitoneal (i.p.) administration of 7.86 nmol (50 μg) of ODN 1668 or 67 nmol of Pam3C per mouse, using ELISA kits from Biolegend™ Inc. CPDP were dissolved in PBS and administered i.p. at the dose of 200 nmol per mouse 1 hour before administration of a TLR agonist. For survival experiments, mice were sensitized to TLR9 agonists by i.p. injection of 20 mg of D-Gal 30 minutes before administration of peptides or PBS. ODN 1668 was used at the doses of 3.93 or 7.86 nmol/mouse (25 or 50 μg/mouse) 1.5 hours after D-Gal. Animal survival was monitored for 50 hours. All agents were administered i.p. in 500 μL volume of PBS. Animals had free access to food and water during the observation period. All animal experiments were conducted in accordance with the national guidelines for the care and use of laboratory animals under a protocol that was approved by the UMB IACUC.
To test the in vivo efficacy and specificity of 9R34-ΔN, C57BL/6J mice were mock-treated or treated i.p. with a single dose of inhibitory or control peptide (200 nmol/mouse) and challenged with TLR9 agonist ODN 1668 (7.86 nmol/mouse) or TLR2/1 agonist Pam3C (67 nmol/mouse) 1 hour later. Plasma concentrations of TNFα and IL-12-p40 were measured 1, 3, and 5 hours after the challenge. Both TLR agonists increased concentrations of TNFα and IL-12-p40 in 1 hour samples from below the limit of detection to about 1.2 and about 6 ng/mL in the case of ODN 1668, and to 0.12 ng/mL and 1 ng/mL after treatment with Pam3C.
Plasma TNFα and IL-12-p40 levels following intraperitioneal administration of ODN 1668 to C57Bl/6J mice in peptide-pretreated and control mice are shown in FIG. 14A and FIG. 14B. Data shown in these figures represent the means±SEM obtained in at least three independent experiments. The statistical significance of changes in cytokine concentrations was determined by a two-way ANOVA test; *p<0.001.

The target of test [4] is recombinant TIRAP (Homo sapiens, UniProt P58753). The note with it: cited from earlier work.

No end group written: not given here.

Chain of recombinant TIRAP (P58753 whole entry): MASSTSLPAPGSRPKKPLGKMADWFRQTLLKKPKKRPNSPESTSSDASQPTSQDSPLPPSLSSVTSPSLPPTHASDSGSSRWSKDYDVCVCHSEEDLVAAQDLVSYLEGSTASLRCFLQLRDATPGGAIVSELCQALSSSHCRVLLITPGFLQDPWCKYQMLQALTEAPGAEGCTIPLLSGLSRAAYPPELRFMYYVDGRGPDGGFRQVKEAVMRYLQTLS
T1 sequence (P58753 84-213 limits assumed): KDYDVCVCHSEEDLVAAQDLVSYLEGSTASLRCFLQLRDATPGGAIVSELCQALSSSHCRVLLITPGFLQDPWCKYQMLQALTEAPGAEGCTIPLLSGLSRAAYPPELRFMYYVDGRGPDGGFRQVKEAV

On to “PQRFCKLRKIMNT (also: Cy3 label, position not given here) [Peptide 2R9, reference compound]”, for which the “Pam3C-induced plasma cytokine levels (TNFα, IL-12-p40)” value in test [1] is recorded as “suppressed cytokine induction”. In addition, the “quenching of TIRAP-Cer fluorescence” value in test [2] is reported as “slightly higher than for the TLR9-9R34-ΔN pair”. Further, the “ODN 1668-induced plasma cytokine levels (TNFα, IL-12-p40)” value in test [3] is reported as “suppressed cytokine induction”. Besides, in test [4], the “affinity for recombinant TIRAP” value is “nanomolar”.
